Source: US20200023036A1, “PHARMACEUTICAL COMPOSITION FOR PREVENTING OR TREATING INFLAMMATORY RESPIRATORY DISEASE CONTAINING FUSION PROTEIN IN WHICH CELL-PENETRATING PEPTIDE AND CTCTLA4 PEPTIDE ARE FUSED AS ACTIVE INGREDIENT” (IUCF-HYU (INDUSTRY-UNIVERSITY COOPERATION FOUNDATION HANYANG, priority 2017, published 2020)

Assays:
[1] = system: GCE-induced allergic asthma animal model; experiment: Lung tissue observation with PAS and Masson's trichrome stain in GCE-induced allergic asthma animal model (Test Example 3); format: in vivo, BALB/c mice; conditions: 10 μg intranasal together with GCE
Description: The lung was fixed in a 10% formalin solution for a day and tissues were prepared as paraffin blocks and sectioned to 3- to 4-μm thickness using a microtome. The prepared slides were stained with PAS (periodic acid-Schiff) stain or Masson's trichrome stain.
To evaluate the inhibitory effect of the dNP2-ctCTLA-4 fusion protein on the pathophysiology of lungs in the GCE-induced allergic asthma animal model, the lung tissues of each test group and control group of Test Example 2 was observed according to 7) of Experimental methods.
The lung tissue of each test group and control group of Test Example 3 was imaged after staining with PAS. The red region indicates mucus-secreting goblet cells.
The lung tissues of each test group and control group of Test Example 3 were imaged after staining with Masson's trichrome stain. The blue region indicates collagen deposition and fibrosis.

[2] = system: naive CD4 T cells differentiated into Th2 cells; experiment: Th2 differentiation assay (Test Example 6); format: cell-based, BALB/c mice; conditions: 1 μM for 6 days; anti-CD3/CD28, IL-4; flow cytometry
Description: Mouse naive CD4 T cells were isolated from the 8-week-old BALB/c mice by magnetic-activated cell sorting (MACS, naive CD4 T cell isolation kit, mouse, Miltenyi, Bergisch Gladbach, Germany).
Then, 2.5×10^5 of the isolated cells were seeded onto anti-CD3/anti-CD28 antibody (0.1 μg/mL)-coated 96-well plates. The cells were incubated in the presence of anti-IFN-γ neutralizing antibody (5 μg/mL), IL-2 (50 U/mL), IL-4 (30 ng/mL) and PBS. After adding 1 μM dNP2-EGFP (Comparative Example 3) or 1 μM dNP2-ctCTLA-4 (Example 2) to each well for 6 days, the cells were analyzed by flow cytometry after re-stimulation, protein transport inhibitor treatment and intracellular staining with anti-mouse IFN-γ-FITC and anti-mouse IL-4-PE FACS antibodies.
The experiment was conducted according to 8) of Experimental methods.
MACS-sorted CD4^+ CD62L^hiCD44^− native CD4 T cells isolated from 8-week-old BALB/c mice were used. They were differentiated into Th2 cells by addition of IL-4 during activation with anti-CD3/CD28 antibodies for 6 days.
The result is presented as mean±s.e.m. (standard error of mean) (n=3). **p<0.01. NA (non-activated) denotes a negative control group, not stimulated by cytokines or anti-TcR antibody.

[3] = system: GCE-induced allergic asthma animal model; experiment: Cell number and immune cell distribution in bronchoalveolar lavage fluid (Test Example 4); format: in vivo, BALB/c mice; conditions: 10 μg intranasal together with GCE; versus GCE-administered PBS test group
Description: In order to collect the bronchoalveolar lavage fluid, the mouse lungs were washed with 1 mL of HBSS (Hank's balanced salt solution) with an intubated tube fluid. Total cells in the lavage fluid were counted with a hemocytometer. Then, the lavage fluid was centrifuged and the cells were prepared on slides after centrifugation at 1000 rpm for 3 minutes. The slides were stained with a Hemacolor staining kit (Merck Millipore, Darmstadt, Germany). The cells were differentially counted until the total counted number reached at least 200 according to the standard hemocytologic procedures to count macrophages and eosinophils.
Experimental conditions were designed as in Test Example 2. A bronchoalveolar lavage fluid was obtained from each test group and control group of Test Example 2 and the inhibitory effect of eosinophil infiltration and Th2 cytokine production was investigated. The details of the design of experiments are as follows.
(§1) The mice reared according to 1) of Experimental methods were used. Specifically, 120 μg of GCE prepared according to 2) of Experimental methods was intranasally administered to the 8-week-old BALB/c mice twice a week for 3 weeks. 10 μg of dNP2-ctCTLA-4 (Example 2), dNP2-EGFP (Comparative Example 3) or a vehicle (PBS) was intranasally administered together when the GCE was administered to the mice.
15 minutes after the experiment was completed, a bronchoalveolar lavage fluid (BALF) was obtained by injecting 1 mL of PBS twice to each animal (see 5) of Experimental methods).

[4] = system: GCE-induced allergic asthma animal model; experiment: Airway hyperresponsiveness (AHR) to methacholine in GCE-induced allergic asthma animal model (Test Example 2); format: in vivo, BALB/c mice; conditions: 10 μg intranasal together with GCE twice a week for 3 weeks; measured on day 21
Description: The mice reared according to the method of 1) were used. Specifically, the 8-week-old BALB/c mice were sensitized by intranasal administration of PBS (sham) or 120 μg of GCE prepared according to the method of 2) twice a week for 3 weeks.
AHR was measured 4 days after the last GCE administration using a flexiVent 5.1 small-animal ventilator (SCIREQ, Montreal, PQ, Canada). The mice were placed in a whole body plethysmograph (Buxco, USA) and 0.4 mL of methacholine solutions at various concentrations (3.1, 6.25, 12.5, 25 or 50 mg/mL) in aerosols were administered through inhalation for 10 seconds. Penh was measured 1 minute and 2 minutes after the administration and the mean value was determined as the Penh (enhanced pause) value for the corresponding methacholine administration dosage.
The mice reared according to 1) of Experimental methods were used. Specifically, PBS (sham) or 120 μg of GCE prepared according to 2) of Experimental methods was intranasally administered to the 8-week-old BALB/c mice twice a week for 3 weeks. […] On day 21, the mice were anesthetized and hyperresponsiveness to methacholine (MeCh) was measured (see 4) of Experimental methods).
The mice reared according to 1) of Experimental methods were used. […]
On day 21, the animals were anesthetized and hyperresponsiveness to methacholine (MeCh) was measured (see 4) of Experimental methods).

[5] = system: IL-5, IL-13, IL-4 and IFN-γ; experiment: Cytokine expression by ELISA in bronchoalveolar lavage and lung tissues (Test Example 4); format: in vivo, BALB/c mice; conditions: 10 μg intranasal together with GCE
Description: The […] obtained by the method of 5) was homogenized using the T-PER tissue protein extraction reagent (Thermo Fisher Scientific, MA, US) to prepare a suspension. The suspension was incubated at 4° C. for 30 minutes and then centrifuged at 2500 rpm for 10 minutes. The supernatant was filtered with a 0.45-μm filter to analyze cytokine expression levels.
as §1
The concentration of IL-5, IL-13, IL-4 and IFN-γ was analyzed with the ELSISA kit and the result was normalized to the total protein concentration of the tissue. The protein concentration was quantified by the Bradford assay. n=5 per each group and the results are presented as mean±s.e.m. (standard error of mean). *p<0.05, **p<0.01.
In this experiment, the bronchoalveolar lavage (BAL) and lung tissues were recovered from each test group and control group and the expression level of IL-13, IL-4 and Th2 cytokines was compared.

IL-13, IL-4 and IFN-γ = experiment: Cytokine expression by ELISA in bronchoalveolar lavage and lung tissues, comparison with CTLA4-Ig (Test Example 5); format: in vivo, BALB/c mice; conditions: 10 μg intranasal together with GCE
Description: The mice reared according to 1) of Experimental methods were used. Specifically, 120 μg of GCE prepared according to 2) of Experimental methods was intranasally administered to the 8-week-old BALB/c mice twice a week for 3 weeks.
(standard error of mean). *p<0.05, **p<0.01.

[6] = system: GCE-induced allergic asthma animal model; experiment: H&E lung tissue observation and airway epithelial thickness, comparison with CTLA4-Ig (Test Example 5); format: in vivo, BALB/c mice

Q: “dNP2-ctCTLA-4: fusion protein: cell-penetrating peptide dNP2 (SEQ ID NO 1) linked to the N-terminal of the ctCTLA-4 peptide (SEQ ID NO 2) (KIKKVKKKGRKGSKIKKVKKKGRKKMLKKRSPLTTGVYVKMPPTEPECEKQFQPYFIPIN; Synthetic peptide sequence, dNP2 peptide; Synthetic peptide sequence, ctCTLA-4 peptide)” was tested. Which “fibrotic area around the bronchial regions (Masson's trichrome stain)” value [1] did it give?
A: significantly reduced fibrotic area

Q: What about the “inflammatory cells and goblet cells in the lungs (PAS stain)” value [1] of the same substance?
A: significantly reduced inflammatory cells and goblet cells

Q: And the “cytokine production (IL-4 and/or IL-13-producing CD4 T cells) in Th2 differentiation” value [2]?
A: significantly reduced cytokine production

Q: What about the “decrease in the number of eosinophils in the bronchoalveolar lavage (BAL)” value [3] of the same substance?
A: ≥ 3 times

Q: What about the “decrease in the number of macrophages in the bronchoalveolar lavage (BAL)” value [3] of the same substance?
A: ≥ 3 times

Q: And the “decrease in the number of total cells in the bronchoalveolar lavage (BAL)” value [3]?
A: ≥ 3 times

Q: And the “airway hyperresponsiveness to methacholine (airway resistance and airway elastance)” value [4]?
A: significantly reduced airway hyperresponsiveness

Q: And the “level of IFN-γ” value ([5]; ELISA)?
A: decreased level of IFN-γ

Q: What about the “decreased expression levels of IL-5, IL-13, IL-4 and IFN-γ in lung tissues” value ([5]; ELISA normalized to total protein, versus PBS test group) of the same substance?
A: > 2 times

Q: And the “decreased expression levels of IL-5, IL-13, IL-4 and IFN-γ in the bronchoalveolar lavage (BAL)” value ([5]; ELISA, versus PBS test group)?
A: more than 3 times

Q: And the “levels of IL-13 and IFN-γ in the bronchoalveolar lavage (BAL) and lung tissues” value (IL-13, IL-4 and IFN-γ)?
A: significantly decreased levels of IL-13 and IFN-γ

Q: What about the “physiological features of the respiratory epithelium: cell infiltration and airway epithelium thickening (H&E)” value ([6]; 10 μg intranasal together with GCE) of the same substance?
A: improved physiological features of the respiratory epithelium

Q: What about the “pharmacological effect relative to the existing CTLA4-Ig” value ([6]; intranasal administration, GCE-induced allergic asthma animal model) of the same substance?
A: 2-3 times
